Here are results for 29 compounds from ChEMBL document CHEMBL1143543, “Potent 1,3,4-trisubstituted pyrrolidine CCR5 receptor antagonists: effects of fused heterocycles on antiviral activity and pharmacokinetic properties” (Bioorg Med Chem Lett, 2005).

Some results are limits rather than exact numbers.

Data set [1] deals with Human immunodeficiency virus 1. Put plainly: Antiinfective activity in HeLa cells against HIV-1(BAL) in the presence of 50% of human serum. It is filed as functional. The conditions noted are these: Human immunodeficiency virus 1, HeLa.
For data set [2], the target named is C-C chemokine receptor type 5 (Homo sapiens, UniProt P51681). Kind of data set: Displacement of [125I]-MIP-1 alpha from human C-C chemokine receptor type 5 expressed on CHO cell membranes.
Sequence of C-C chemokine receptor type 5 (P51681 whole entry): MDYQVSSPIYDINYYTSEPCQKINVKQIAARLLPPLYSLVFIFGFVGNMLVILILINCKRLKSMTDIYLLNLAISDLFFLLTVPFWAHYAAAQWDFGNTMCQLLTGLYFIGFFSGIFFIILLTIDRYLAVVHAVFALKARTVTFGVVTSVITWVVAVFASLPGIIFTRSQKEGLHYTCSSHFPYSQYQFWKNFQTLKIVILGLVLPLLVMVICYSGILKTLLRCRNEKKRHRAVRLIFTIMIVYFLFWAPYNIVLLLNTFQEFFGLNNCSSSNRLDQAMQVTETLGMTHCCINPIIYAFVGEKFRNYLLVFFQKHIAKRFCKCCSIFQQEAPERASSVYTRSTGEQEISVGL
Data set [3] relates to Human immunodeficiency virus 1. Kind of data set: Antiinfective activity in HeLa cells against HIV-1(BAL) in the absence of 50% of human serum. Particulars: Human immunodeficiency virus 1, HeLa. The data set is classed as functional.
Data set [4] is described as follows: Oral bioavailability in rat. The data set is classed as ADME, organism-based. The conditions noted are these: in vivo.
Data set [5] is described as follows: Plasma clearance in rat. It is filed as ADME, organism-based. Particulars: read-out: Clp.
Data set [6] in a line: Half life in rat. The data set is classed as ADME. Particulars: in vivo.
A short description of data set [7]: Bioavailability in rat. It is filed as ADME, organism-based. The conditions noted are these: in vivo.
Data set [8] addresses Voltage-gated L-type calcium channel (Homo sapiens, UniProt Q13936+Q13698+Q01668+O60840). Kind of data set: Inhibitory concentration against L-type [Ca2+] channel. The data set is classed as protein assay.
A short description of data set [9]: Inhibitory concentration against PBM cells. The data set is classed as functional. The conditions noted are these: PBMC.
The target of data set [10] is Voltage-gated inwardly rectifying potassium channel KCNH2 (Homo sapiens, UniProt Q12809). Kind of data set: Inhibitory activity against human Potassium channel HERG.
Sequence of Voltage-gated inwardly rectifying potassium channel KCNH2 (Q12809 whole entry): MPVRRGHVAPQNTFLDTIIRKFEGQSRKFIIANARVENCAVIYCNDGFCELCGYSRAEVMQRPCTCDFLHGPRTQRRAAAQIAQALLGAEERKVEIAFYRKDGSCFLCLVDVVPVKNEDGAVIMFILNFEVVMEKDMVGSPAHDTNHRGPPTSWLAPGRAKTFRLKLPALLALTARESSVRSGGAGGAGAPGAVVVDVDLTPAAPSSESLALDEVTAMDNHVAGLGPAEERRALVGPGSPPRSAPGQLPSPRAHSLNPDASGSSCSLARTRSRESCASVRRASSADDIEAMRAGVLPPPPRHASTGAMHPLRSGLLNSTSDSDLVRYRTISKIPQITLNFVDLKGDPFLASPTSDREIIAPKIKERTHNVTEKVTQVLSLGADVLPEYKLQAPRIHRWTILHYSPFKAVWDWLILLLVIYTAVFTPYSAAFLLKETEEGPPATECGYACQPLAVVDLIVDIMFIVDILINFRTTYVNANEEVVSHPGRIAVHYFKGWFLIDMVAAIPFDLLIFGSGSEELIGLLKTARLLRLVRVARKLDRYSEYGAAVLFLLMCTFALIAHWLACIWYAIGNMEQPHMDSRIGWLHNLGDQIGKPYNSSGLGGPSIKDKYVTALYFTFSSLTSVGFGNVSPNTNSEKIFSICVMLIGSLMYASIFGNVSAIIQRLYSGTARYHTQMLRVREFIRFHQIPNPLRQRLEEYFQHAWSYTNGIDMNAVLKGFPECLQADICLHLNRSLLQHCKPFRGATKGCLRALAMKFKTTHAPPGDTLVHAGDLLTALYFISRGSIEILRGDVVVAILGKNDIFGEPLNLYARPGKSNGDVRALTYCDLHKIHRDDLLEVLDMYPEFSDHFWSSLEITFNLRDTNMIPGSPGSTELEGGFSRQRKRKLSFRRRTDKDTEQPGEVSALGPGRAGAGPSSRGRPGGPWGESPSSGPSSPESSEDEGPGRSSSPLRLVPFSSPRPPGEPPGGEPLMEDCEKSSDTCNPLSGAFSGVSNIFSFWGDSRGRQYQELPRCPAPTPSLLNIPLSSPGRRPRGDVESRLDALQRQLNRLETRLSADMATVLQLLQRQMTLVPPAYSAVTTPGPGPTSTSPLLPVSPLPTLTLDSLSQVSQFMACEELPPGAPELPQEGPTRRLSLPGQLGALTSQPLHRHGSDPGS

As to `O=C(O)[C@@H](C1CCCCC1)N1C[C@H](CN2CCC(Cn3cnc4ccccc43)CC2)[C@@H](c2ccccc2)C1`, the values for the IC90 in [1] and in [3] were above 300 nM and 100 nM, respectively. In addition, in [2], the IC50 (in general, the point on the concentration scale where inhibition reaches its midpoint) amounted to 6.3 nM.
For `O=C(O)[C@@H](CC1CCC1)N1C[C@H](CN2CCC(c3nnc4ccccn34)CC2)[C@@H](c2ccccc2)C1`, the IC90 (in general, the concentration at which the effect reaches the 90% level) is above 300 nM in data set [1] and 100 nM in data set [3]. The IC50 in data set [2] is 12 nM.
In the case of `O=C(O)[C@@H](C1CCCCC1)N1C[C@H](CN2CCC(n3cnc(=O)c4ccccc43)CC2)[C@@H](c2ccccc2)C1`, in data set [2], the IC50 worked out at 100 nM.
For the compound `O=C(O)[C@@H](C1CCCCC1)N1C[C@H](CN2CCC(CCCn3cnc4ccccc43)CC2)[C@@H](c2ccccc2)C1`, in data set [4], the bioavailability (as a rule, the share of a dose that reaches the circulation, judged against a reference dose that is usually intravenous) is below 2%. Further, the IC90 in data set [1] is 33 nM; in data set [3] it was 1.2 nM. This compound came in with an IC50 in data set [2] of 0.84 nM.
Consider `O=C(O)[C@@H](CC1CCC1)N1C[C@H](CN2CCC(c3cnc4ccc(-c5ccccc5)cn34)CC2)[C@@H](c2cccc(F)c2)C1`, for which the figures for the IC90 in data set [1] and in data set [3] were 300 nM and 11 nM, respectively. The compound also yielded an IC50 in [2] of 0.8 nM. In addition, the clearance in data set [5] was 83 mL/min/kg. In addition, the half-life – broadly, the time needed for the level to fall by half in the phase considered – in data set [6] is 96 min. The compound also displayed a bioavailability in data set [7] of 19%.
In the case of `O=C(O)[C@@H](C1CCCCC1)N1C[C@H](CN2CCC(CCn3cnc4ccccc43)CC2)[C@@H](c2ccccc2)C1`, the IC90 in [1] was above 300 nM; in data set [3], 100 nM. In addition, the 50% inhibitory concentration (IC50) in data set [2] was 2.6 nM.
In the case of `CCc1ccn2c(C3CCN(C[C@H]4CN([C@H](CC5CCC5)C(=O)O)C[C@@H]4c4cccc(F)c4)CC3)cnc2c1`, the IC90 was 11 nM in data set [1] and 0.13 nM in data set [3]. The compound further came in with an IC50 in [2] of 0.35 nM. For the same compound, in [5], the clearance was 67 mL/min/kg. Moreover, the half-life in [6] was 150 min. Further, the bioavailability in data set [7] was 11%.
Take `O=C(O)[C@@H](CC1CCC1)N1C[C@H](CN2CCC(c3cnc4ccc(Cl)cn34)CC2)[C@@H](c2cccc(F)c2)C1`: the IC90 was 100 nM in data set [1] and 1.2 nM in data set [3]. Moreover, the IC50 is above 10000 nM in data set [8] and 0.89 nM in [2]. The clearance in data set [5] worked out at 16 mL/min/kg. In data set [6], this compound had a half-life of 42 min. For the same compound, in data set [7], the bioavailability was 26%.
In turn, `O=C(O)[C@@H](C1CCCCC1)N1C[C@H](CN2CCC(n3cnc4ccccc4c3=O)CC2)[C@@H](c2ccccc2)C1` returned an IC50 in data set [2] of 12 nM.
Turning to `O=C(O)[C@@H](CC1CCC1)N1C[C@H](CN2CCC(c3cnc4ccc(F)cn34)CC2)[C@@H](c2cccc(F)c2)C1`, the values for the IC90 in data set [1] and in data set [3] were 300 nM and 3.7 nM, respectively. The compound further had an IC50 in data set [2] of 0.3 nM. Further, in [5], the clearance turned out to be 19 mL/min/kg. The same compound showed a half-life in [6] of 48 min. In addition, the bioavailability in data set [7] worked out at 38%.
For `O=C(O)[C@@H](C1CCCCC1)N1C[C@H](CN2CCC(n3c(=O)[nH]c4ccccc43)CC2)[C@@H](c2ccccc2)C1`, the IC50 in [2] came to 63 nM.
For `O=C(O)[C@@H](CC1CCC1)N1C[C@H](CN2CCC(c3cnc4ccc([N+](=O)[O-])cn34)CC2)[C@@H](c2cccc(F)c2)C1`, the IC90 was found to be 300 nM in data set [1] and 100 nM in data set [3]. The IC50 in data set [2] came out at 0.6 nM. For the same compound, the clearance in data set [5] turned out to be 120 mL/min/kg. For the same compound, in data set [6], the half-life is 12 min. Also, the bioavailability in data set [7] amounted to 61%.
As to `O=C(O)[C@@H](C1CCCCC1)N1C[C@H](CN2CCC(n3cnc4ncccc43)CC2)[C@@H](c2ccccc2)C1`, the IC50 in data set [2] worked out at 23 nM.
The compound `O=C(O)[C@@H](C1CCCCC1)N1C[C@H](CN2CCC(n3nnc4ccccc43)CC2)[C@@H](c2ccccc2)C1` returned an IC50 in data set [2] of 8.2 nM. This compound also registered an IC90 in data set [3] of 100 nM.
`O=C(O)[C@@H](CC1CCC1)N1C[C@H](CN2CCC(CCCc3ccccc3)CC2)[C@@H](c2ccccc2)C1`: in data set [9], the IC95 (in general, the point of the concentration-response curve where the effect stands at 95%) was below 8 nM.
On to `Cc1cc(C)n2ncc(C3CCN(C[C@H]4CN([C@H](CC5CCC5)C(=O)O)C[C@@H]4c4cccc(F)c4)CC3)c2n1`, for which the IC90 in data set [1] and in [3] was above 300 nM in each case. The same compound had an IC50 in data set [2] of 7 nM.
Turning to `O=C(O)[C@@H](CC1CCC1)N1C[C@H](CN2CCC(c3cnc4ccccn34)CC2)[C@@H](c2cccc(F)c2)C1`, the IC90 was determined as 33 nM in data set [1] and 1.2 nM in data set [3]. The IC50 was above 10000 nM in data set [8] and 0.42 nM in [2]. Besides, the clearance in [5] amounted to 38 mL/min/kg. In [6], the half-life was 126 min. This compound also had a bioavailability in [7] of 4%.
As for `O=C(O)[C@@H](CC1CCC1)N1C[C@H](CN2CCC(c3cnc4cnccn34)CC2)[C@@H](c2cccc(F)c2)C1`, the IC90 in data set [1] worked out at 100 nM; in data set [3], 11 nM. Besides, the IC50 in data set [2] is 1 nM.
Compound `O=C(O)[C@@H](CC1CCC1)N1C[C@H](CN2CCC(c3cn4cccnc4n3)CC2)[C@@H](c2ccccc2)C1` yielded an IC50 in data set [2] of 200 nM.
Take `O=C(O)[C@@H](C1CCCCC1)N1C[C@H](CN2CCC(n3cnc4ccccc43)CC2)[C@@H](c2ccccc2)C1`: the bioavailability in [4] was below 2%. Also, the IC90 in data set [1] was found to be 100 nM; in data set [3], 11 nM. The compound also came in with an IC50 in data set [2] of 2.5 nM.
On to `O=C(O)[C@@H](CC1CCC1)N1C[C@H](CN2CCC(c3cnc4c(Cl)cc(Cl)cn34)CC2)[C@@H](c2cccc(F)c2)C1`, for which the IC90 turned out to be 300 nM in [1] and 33 nM in [3]. For the same compound, in data set [2], the IC50 turned out to be 0.5 nM. Besides, in data set [5], the clearance turned out to be 20 mL/min/kg. This compound also had a half-life in data set [6] of 24 min. Further, the bioavailability in data set [7] was found to be 39%.
As to `O=C(O)[C@@H](CC1CCC1)N1C[C@H](CN2CCC(c3cnc4ccc(C(F)(F)F)cn34)CC2)[C@@H](c2cccc(F)c2)C1`, the results for the IC90 in data set [1] and in data set [3] were 300 nM and 11 nM, respectively. For the same compound, the figures for the IC50 in data set [8], in [2] and in data set [10] were above 10000 nM, 0.82 nM and below 10000 nM, respectively. Moreover, the clearance in data set [5] came out at 18 mL/min/kg. Also, in [6], the half-life was 48 min. The same compound registered a bioavailability in data set [7] of 26%.
In the case of `O=C(O)[C@@H](C1CCCCC1)N1C[C@H](CN2CCC(n3cnc4cccnc43)CC2)[C@@H](c2ccccc2)C1`, in data set [2], the IC50 was found to be 2.8 nM. This compound also displayed an IC90 in data set [3] of 33 nM.
Consider `O=C(O)[C@@H](C1CCCCC1)N1C[C@H](CN2CCC(c3c[nH]c4ccccc34)CC2)[C@@H](c2ccccc2)C1`, for which the IC50 in data set [2] amounted to 10 nM.
In the case of `O=C(O)[C@@H](CC1CCC1)N1C[C@H](CN2CCC(c3ncc4ccccn34)CC2)[C@@H](c2cccc(F)c2)C1`, the IC90 in [1] and in data set [3] was above 300 nM throughout. Further, in data set [2], the IC50 turned out to be 13 nM.
Consider `O=C(O)[C@@H](CC1CCC1)N1C[C@H](CN2CCC(c3cnc4ncccn34)CC2)[C@@H](c2cccc(F)c2)C1`, for which the IC90 in data set [1] was found to be 100 nM; in data set [3], 33 nM. In data set [2], the half-inhibitory concentration (IC50) amounted to 3.5 nM.
Regarding `O=C(O)[C@@H](CC1CCC1)N1C[C@H](CN2CCC(c3cn4ccncc4n3)CC2)[C@@H](c2cccc(F)c2)C1`, the IC90 in data set [1] and in data set [3] was 300 nM each time. The IC50 in data set [2] is 29 nM.
With `O=C(O)[C@@H](CC1CCC1)N1C[C@H](CN2CCC(c3cnc4cccnn34)CC2)[C@@H](c2cccc(F)c2)C1`, the values for the IC90 in [1] and in [3] were 300 nM and 11 nM, respectively. The same compound yielded an IC50 in data set [2] of 3 nM.
On to `O=C(O)[C@@H](CC1CCC1)N1C[C@H](CN2CCC(c3cn4ccccc4n3)CC2)[C@@H](c2cccc(F)c2)C1`, for which, in data set [2], the IC50 stood at 65 nM.
